We go through two substances from US20150183846A1, “HUMAN FUSION PROTEINS COMPRISING SINGLE CHAIN TNFALPHA AND TARGETING DOMAINS” (Scil Proteins GmbH, priority 2012, published 2015).

Series [1] deals with F9-tumor tissue. Briefly: Binding on F9 teratocarcinoma tumor slices. On the set-up: species or system mouse. The method, then:
ED-B accumulates around neovascular structures, like tumor blood vessels (Tarli et al., 1999, Blood 94: 192-198). Different concentrations of fusion proteins were compared with respect to ED-B target binding on F9 teratocarcinoma slides. Slices of a thickness of 6 μm were fixed with ice cold absolute acetone. After blocking with 5% horse serum, slices were incubated with 1, 5 and 10 nM of fusion proteins 64177, 83563, 83564 and the non-ED-B targeted protein 64179, respectively. Fusion proteins were probed by anti-TNFalpha-antibody (Peprotech 500-P64, 1:500) and additional with a secondary Alexa488 conjugated antibody (Invitrogen, A11008, 1:1000). CD31 (PECAM-1) is a widely used endothelial cell marker. Therefore, vessels were stained by use of an anti-mouse CD31-antibody (10 μg/ml; Abcam, ab56299) and an Alexa594-conjugated secondary antibody.

The test system of series [2] is NHDF cells. Briefly: Binding (staining) on vital NHDF cells. The format is cell-based, human. The note with it: NHDF cells (low ED-B), up to 10 nM. The method, then:
(§1) ED-B is expressed in tumors and the matrix on embryonic cells. The binding of the cancer target-binding protein fused to scTNFalpha to the matrix of cell culture cells was compared to the binding of the control and non-targeting domain protein fused to scTNFalpha (64179). Different cell culture cells were analyzed, including normal human fetal lung fibroblast cells having high expression levels of ED-B (Wi38 cells), and normal human dermal fibroblasts having low level of ED-B (NHDF). To analyze the in vitro binding, 64177, 83563, 83564 and 64179 were investigated on vital Wi38 cells.
(§2) Fusion proteins (single concentration of 1, 5 and 10 nM) or control protein 64179 (1, 5 and 10 nM) were incubated (1 h, 37° C.) with Wi38 and NHDF cells (60,000 cells/ml; from ATCC), followed by fixation with methanol, blocking (5% Horse serum/PBS); incubation with an anti-TNFalpha-antibody (Peprotech 500-P64, 1:500) and additionally with a secondary Alexa488 conjugated antibody (obtained from Invitrogen A11008, 1:1000). The nuclei were stained with DAPI.

Series [3] deals with MDA-MB 231 tumor. The series can be described thus: In vivo efficacy study in breast cancer (MDA-MB 231) tumor bearing mice, combination with Lipodox. The arrangement: species or system mouse. The source says:
The efficacy study is intended to analyze the effect of targeted fusion protein 83564 combined with a chemotherapeutic on the tumor size in a breast cancer model. As model system for the in vivo efficacy study, the breast cancer cell line MDA-MB 231 (ATCC® HTB-26™; patient derived model, obtained from ATCC) was used. Cells were implanted subcutaneously in the left flank of female immunodeficient NMRI nu/nu mice from Harlan. For this study, Lipodox was used as exemplary cytotoxic drug; any other cytotoxic agents could be used instead. The chemotherapeutic Lipodox from Sun Pharma Global FZE is composed of doxorubicin hydrochloride encapsulated in long circulating pegylated liposomes. It is indicated as monotherapy for the treatment of metastatic breast cancer with increased cardiac risk.
In order to show the efficacy of Affilin-scTNFalpha-fusion protein 83564, mice carrying an MDA-MB 231 tumor with an initial size between 50 mm^3 and 200 mm^3 were intravenously treated with 75 μg/kg/day 83564 combined with Lipodox at a dose of 1.5 mg/kg/day (closed squares in FIG. 8). As control substance, 75 μg/kg/day 64179 (Affilin-scTNFalpha-fusion protein without targeting) combined with Lipodox at a dose of 1.5 mg/kg/day was injected intravenously into separate mice (closed circles in FIG. 8). […] During the whole efficacy study, the relative tumor volume was analyzed.

Series [4] deals with Wi38 cells. The series can be described thus: Binding (staining) on vital Wi38 fibroblast cells. As to conditions: Wi38 cells (high ED-B), up to 10 nM, anti-TNFalpha-antibody detection. The format is cell-based, human. On the procedure:
as §1, §2

In series [5] the test system is L929 cells. Briefly: L929 apoptosis (cytotoxicity) assay of TNFalpha activity. As to conditions: actinomycin D sensitized cells, 24 h. The format is cell-based. The source says:
The physiological TNFalpha-activity of an Affilin-scTNF-fusion protein has been determined using the L929 apoptosis assay (Flick et al., 1984 J. Immunol. Methods. 68:167-175). In this assay, the effector part of the fusion protein (scTNFalpha, three soluble TNFalpha monomers connected via peptide linkers) efficiently stimulates cell death in actinomycin D sensitized cells at EC50 values in the picomolar range.
Cells were resuspended in suitable medium containing FBS and antibiotics. A cell suspension of a density of 3.5×10^5 cells/ml in medium containing 2% FCS was seeded into the wells of a 96 well standard cell culture plate. After incubation, the culture medium was removed and medium containing 4% FBS, Actinomycin D and antibiotics was added to each well. […] After a further incubation of 24 h, the metabolic activity as a measure of cell survival was determined using WST-1 reagent (Roche). […] The quantitative evaluation is based on the relative potency against a mTNFalpha-standard.
In this embodiment, an L929 assay was used as activity assay versus mouse TNFalpha as internal standard (mTNFalpha in the figure). […] Potency has been determined in several independent assays and is determined by parallel line method with PLA2.0 software relative to the internal control mTNFalpha. […]

A short description of series [6]: In vivo toxicity study in naive CD1 mice, single intravenous dose. As to conditions: i.v., mTNFalpha 470 μg/kg equimolar to 650 μg/kg 64177. On the procedure:
Two groups of 3 male and 3 female mice for each treatment dose were recruited. One group of 3 male and 3 female mice for each treatment dose was sacrificed 24 h after the intravenous administration to obtain information on acute TNFalpha mediated effects. […] Parameters that were analyzed are: clinical signs (local tolerance, systemic tolerance, mortality, behavior, external appearance, faeces), body weight, body temperature, food consumption, hematology, clinical chemistry, macroscopic post mortem findings, organ weights and histopathology of dedicated organs.

“Also recorded” adds a separate entry of the source.

Turning to “64179: control fusion protein of a non-binding ubiquitin dimer (Ub2) and mouse scTNFalpha (SEQ ID NO: 16) [compound 64179, reference compound]”, the “accumulation close to F9-tumor vessels (co-staining with anti-CD31)” value in series [1] (1 nM fusion protein) is on record as “no accumulation in F9-tumor vessels”. Further, the “binding on F9-tumor tissue slices” value in series [1] (1 nM, 5 nM and 10 nM) is “not detected”. Moreover, the “staining on vital NHDF cells” value in series [2] was “not detectable”. In series [3] (75 μg/kg/day fusion protein i.v. combined with Lipodox 1.5 mg/kg/day), the “relative tumor volume at day 28” value is on record as 651 mm^3. For the same substance, the “effect on tumor growth compared with the other groups” value in series [3] (fusion protein combined with Lipodox 1.5 mg/kg/day) is listed as “had the effect on growth of breast cancer as Lipodox alone”. For the same substance, in series [4], the “staining of ED-B on vital Wi38 cells” value is “No unspecific staining; also recorded: not detectable”. Also, in series [5], the “activity of the scTNFalpha part relative to mouse TNFalpha internal standard” value is reported as “at least the same activity compared to the mouse TNFalpha”.
Regarding “mTNFalpha: murine recombinant TNFalpha used as internal standard and reference item [reference compound]”, in series [6], the “incidence and/or severity of toxic effects, mTNFalpha- versus 64177-treated animals” value is on record as “generally more pronounced”.
